Laboratory results published in patent publication US20240132431A1, “METHOD FOR ALKYLATING ACIDIC FUNCTIONAL GROUP” (Chugai Seiyaku Kabushiki Kaisha, priority 2021, published 2024).

Biological target: T1, Bcl-2 protein (Recombinant Human Bcl-2 Protein) (Homo sapiens, UniProt P10415)
T1 construct: purchased Novus NBP2-34889
Experiment: Binding evaluation of mixture library compounds to Bcl-2 using AS-MS (affinity selection mass spectrometry)
Settings: AS-MS on the mixture of 1200 library compounds, ASMS Ratio(%)=(A−C)/B×100; for ASMS ratio (%) n = 1: replicate n = 1; for ASMS ratio (%) n = 2: replicate n = 2
Procedure, shortened: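 ASMS Ratio (%) was calculated as (A−C)/B×100, where A is the protein sample after SEC, B the protein-free sample without SEC and C the protein-free sample after SEC. Each compound was at […] in a 1200-member pool with 20 μM Bcl-2, incubated 1 h at 23° C.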

T1 sequence (P10415 whole entry): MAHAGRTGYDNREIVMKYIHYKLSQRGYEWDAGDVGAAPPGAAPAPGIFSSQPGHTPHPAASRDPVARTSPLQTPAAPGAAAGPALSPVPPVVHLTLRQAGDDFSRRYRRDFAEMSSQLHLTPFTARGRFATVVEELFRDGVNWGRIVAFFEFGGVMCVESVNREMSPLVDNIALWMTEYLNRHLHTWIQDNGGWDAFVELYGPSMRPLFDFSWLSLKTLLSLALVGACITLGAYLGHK

Row | SMILES | ASMS ratio (%) n = 1 [%] | ASMS ratio (%) n = 2 [%]
1 | CCOc1cncc(-c2ccc(CN3CCN(c4ccc(C(=O)Nc5ccc(OC)cc5)cc4)CC3)cc2C)c1 [B1O048-01, 4-[4-[[4-(5-Ethoxypyridin-3-yl)-3-methylphenyl]methyl]piperazin-1-yl]-N-(4-methoxyphenyl)benzamide] | −0.3 | −1.6
2 | CCOc1cccc(-c2ccc(CN3CCN(c4ccc(C(=O)Nc5ccc(OC)cc5)cc4)CC3)c(CC)c2)c1 [B1O049-01, 4-[4-[[4-(3-Ethoxyphenyl)-2-ethylphenyl]methyl]piperazin-1-yl]-N-(4-methoxyphenyl)benzamide] | 6.1 | 0.0
3 | CCOc1cncc(-c2ccc(CN3CCN(c4ccc(C(=O)Nc5ccc(OC)cc5)cc4)CC3)c(CC)c2)c1 [B1O050-01] | 10.3 | −5.8
4 | CCOc1cccc(-c2ccc(CN3CCN(c4ccc(C(=O)Nc5ccc(OC)cc5)cc4)CC3)cc2F)c1 [B1O051-01, 4-[4-[[4-(3-Ethoxyphenyl)-3-fluorophenyl]methyl]piperazin-1-yl]-N-(4-methoxyphenyl)benzamide] | 3.9 | −1.9
5 | CCOc1cncc(-c2ccc(CN3CCN(c4ccc(C(=O)Nc5ccc(OC)cc5)cc4)CC3)cc2F)c1 [B1O052-01, 4-[4-[[4-(5-Ethoxypyridin-3-yl)-3-fluorophenyl]methyl]piperazin-1-yl]-N-(4-methoxyphenyl)benzamide] | 1.6 | 0.4
6 | CCOc1cccc(-c2ccc(CN3CCN(c4ccc(C(=O)Nc5ccc(OC)cc5)cc4)CC3)c(OC)c2)c1 [B1O053-01, 4-[4-[[4-(3-Ethoxyphenyl)-2-methoxyphenyl]methyl]piperazin-1-yl]-N-(4-methoxyphenyl)benzamide] | 2.2 | −1.0
7 | CCOc1cncc(-c2ccc(CN3CCN(c4ccc(C(=O)Nc5ccc(OC)cc5)cc4)CC3)c(OC)c2)c1 [B1O054-01, 4-[4-[[4-(5-Ethoxypyridin-3-yl)-2-methoxyphenyl]methyl]piperazin-1-yl]-N-(4-methoxyphenyl)benzamide] | 2.6 | 3.2
8 | CCOc1cccc(-c2cc(CN3CCN(c4ccc(C(=O)Nc5ccc(OC)cc5)cc4)CC3)cc(OCC)c2)c1 [B1O055-01] | 3.0 | −4.2
9 | CCOc1cncc(-c2cc(CN3CCN(c4ccc(C(=O)Nc5ccc(OC)cc5)cc4)CC3)cc(OCC)c2)c1 [B1O056-01, 4-[4-[[3-Ethoxy-5-(5-ethoxypyridin-3-yl)phenyl]methyl]piperazin-1-yl]-N-(4-methoxyphenyl)benzamide] | 6.7 | −0.9
10 | CCOc1cccc(-c2cc(CN3CCN(c4ccc(C(=O)Nc5ccc(OC)cc5)cc4)CC3)cc(OC(C)C)c2)c1 [B1O057-01, 4-[4-[[3-(3-Ethoxyphenyl)-5-propan-2-yloxyphenyl]methyl]piperazin-1-yl]-N-(4-methoxyphenyl)benzamide] | 4.1 | −2.2
11 | CCOc1cncc(-c2cc(CN3CCN(c4ccc(C(=O)Nc5ccc(OC)cc5)cc4)CC3)cc(OC(C)C)c2)c1 [B1O058-01] | −3.5 | 4.4
12 | CCOc1cccc(-c2cc(OC)c(CN3CCN(c4ccc(C(=O)Nc5ccc(OC)cc5)cc4)CC3)c(OC)c2)c1 [B1O059-01, 4-[4-[[4-(3-Ethoxyphenyl)-2,6-dimethoxyphenyl]methyl]piperazin-1-yl]-N-(4-methoxyphenyl)benzamide] | 2.0 | −1.9
13 | CCOc1cncc(-c2cc(OC)c(CN3CCN(c4ccc(C(=O)Nc5ccc(OC)cc5)cc4)CC3)c(OC)c2)c1 [B1O060-01, 4-[4-[[4-(5-Ethoxypyridin-3-yl)-2,6-dimethoxyphenyl]methyl]piperazin-1-yl]-N-(4-methoxyphenyl)benzamide] | 0.6 | −1.8
14 | CCOc1cccc(-c2cc(CN3CCN(c4ccc(C(=O)Nc5ccc(OC)cc5)cc4)CC3)cc(C(F)(F)F)c2)c1 [B1O061-01, 4-[4-[[3-(3-Ethoxyphenyl)-5-(trifluoromethyl)phenyl]methyl]piperazin-1-yl]-N-(4-methoxyphenyl)benzamide] | 1.9 | −1.5
15 | CCOc1cncc(-c2cc(CN3CCN(c4ccc(C(=O)Nc5ccc(OC)cc5)cc4)CC3)cc(C(F)(F)F)c2)c1 [B1O062-01, 4-[4-[[3-(5-Ethoxypyridin-3-yl)-5-(trifluoromethyl)phenyl]methyl]piperazin-1-yl]-N-(4-methoxyphenyl)benzamide] | 1.3 | 4.6
16 | CCOc1cccc(-c2cc(CN3CCN(c4ccc(C(=O)Nc5ccc(OC)cc5)cc4)CC3)cc(OC(F)(F)F)c2)c1 [B1O063-01, 4-[4-[[3-(3-Ethoxyphenyl)-5-(trifluoromethoxy)phenyl]methyl]piperazin-1-yl]-N-(4-methoxyphenyl)benzamide] | 3.5 | −4.1

Row | SMILES | ASMS ratio (%) n = 1 [%] | ASMS ratio (%) n = 2 [%]
17 | CCOc1cncc(-c2cc(CN3CCN(c4ccc(C(=O)Nc5ccc(OC)cc5)cc4)CC3)cc(OC(F)(F)F)c2)c1 [B1O064-01, 4-[4-[[3-(5-Ethoxypyridin-3-yl)-5-(trifluoromethoxy)phenyl]methyl]piperazin-1-yl]-N-(4-methoxyphenyl)benzamide] | 0.7 | −4.0
18 | CCOc1cccc(-c2ccc(CN3CCN(c4ccc(C(=O)Nc5ccc(OC)cc5)cc4)CC3)c3ccccc23)c1 [B1O065-01, 4-[4-[[4-(3-Ethoxyphenyl)naphthalen-1-yl]methyl]piperazin-1-yl]-N-(4-methoxyphenyl)benzamide] | 7.5 | 0.8
19 | CCOc1cncc(-c2ccc(CN3CCN(c4ccc(C(=O)Nc5ccc(OC)cc5)cc4)CC3)c3ccccc23)c1 [B1O066-01, 4-[4-[[4-(5-Ethoxypyridin-3-yl)naphthalen-1-yl]methyl]piperazin-1-yl]-N-(4-methoxyphenyl)benzamide] | 12.1 | 2.7
20 | CCOc1cccc(-c2csc(CN3CCN(c4ccc(C(=O)Nc5ccc(OC)cc5)cc4)CC3)c2)c1 [B1O067-01] | 0.0 | 0.0
21 | CCOc1cncc(-c2csc(CN3CCN(c4ccc(C(=O)Nc5ccc(OC)cc5)cc4)CC3)c2)c1 [B1O068-01, 4-[4-[[4-(5-Ethoxypyridin-3-yl)thiophen-2-yl]methyl]piperazin-1-yl]-N-(4-methoxyphenyl)benzamide] | 1.9 | −1.1
22 | CCOc1cccc(C#Cc2ccccc2CN2CCN(c3ccc(C(=O)Nc4ccc(OC)cc4)cc3)CC2)c1 [B1O069-01, 4-[4-[[2-[2-(3-Ethoxyphenyl)ethynyl]phenyl]methyl]piperazin-1-yl]-N-(4-methoxyphenyl)benzamide] | 6.2 | −2.4
23 | CCOc1cncc(C#Cc2ccccc2CN2CCN(c3ccc(C(=O)Nc4ccc(OC)cc4)cc3)CC2)c1 [B1O070-01] | 8.8 | 2.3
24 | CCOc1cccc(-c2ccccc2CN2CCN(c3ccc(C(=O)Nc4ccc(OC)cc4)nn3)CC2)c1 [B1O071-01, 6-[4-[[2-(3-Ethoxyphenyl)phenyl]methyl]piperazin-1-yl]-N-(4-methoxyphenyl)pyridazine-3-carboxamide] | 2.9 | −1.1
25 | CCOc1cncc(-c2ccccc2CN2CCN(c3ccc(C(=O)Nc4ccc(OC)cc4)nn3)CC2)c1 [B1O072-01, 6-[4-[[2-(5-Ethoxypyridin-3-yl)phenyl]methyl]piperazin-1-yl]-N-(4-methoxyphenyl)pyridazine-3-carboxamide] | 4.1 | 0.4
26 | CCOc1cccc(-c2ccc(CN3CCN(c4ccc(C(=O)Nc5ccc(OC)cc5)nn4)CC3)cc2C)c1 [B1O073-01, 6-[4-[[4-(3-Ethoxyphenyl)-3-methylphenyl]methyl]piperazin-1-yl]-N-(4-methoxyphenyl)pyridazine-3-carboxamide] | 2.0 | 3.7
27 | CCOc1cncc(-c2ccc(CN3CCN(c4ccc(C(=O)Nc5ccc(OC)cc5)nn4)CC3)cc2C)c1 [B1O074-01, 6-[4-[[4-(5-Ethoxypyridin-3-yl)-3-methylphenyl]methyl]piperazin-1-yl]-N-(4-methoxyphenyl)pyridazine-3-carboxamide] | 3.9 | −0.9
28 | CCOc1cccc(-c2ccc(CN3CCN(c4ccc(C(=O)Nc5ccc(OC)cc5)nn4)CC3)c(CC)c2)c1 [B1O075-01, 6-[4-[[4-(3-Ethoxyphenyl)-2-ethylphenyl]methyl]piperazin-1-yl]-N-(4-methoxyphenyl)pyridazine-3-carboxamide] | 9.3 | 0.8
29 | CCOc1cncc(-c2ccc(CN3CCN(c4ccc(C(=O)Nc5ccc(OC)cc5)nn4)CC3)c(CC)c2)c1 [B1O076-01, 6-[4-[[4-(5-Ethoxypyridin-3-yl)-2-ethylphenyl]methyl]piperazin-1-yl]-N-(4-methoxyphenyl)pyridazine-3-carboxamide] | 4.4 | 1.1
30 | CCOc1cccc(-c2ccc(CN3CCN(c4ccc(C(=O)Nc5ccc(OC)cc5)nn4)CC3)cc2F)c1 [B1O077-01, 6-[4-[[4-(3-Ethoxyphenyl)-3-fluorophenyl]methyl]piperazin-1-yl]-N-(4-methoxyphenyl)pyridazine-3-carboxamide] | 4.1 | 0.4
31 | CCOc1cncc(-c2ccc(CN3CCN(c4ccc(C(=O)Nc5ccc(OC)cc5)nn4)CC3)cc2F)c1 [B1O078-01] | 4.8 | 1.8
